Where two headings read alike, the source gives them in different places.
Target: GABAA receptor (rat brain cortical membranes, [35S]-TBPS binding)
[1] = Table I-5, rat brain cortical membranes, 3 nM [35S]-TBPS, in the presence of 5 mM GABA
[2] = Table I-6, rat brain cortical membranes, 3 nM [35S]-TBPS, in the presence of 5 mM GABA
[3] = Table I-4, rat brain cortical membranes, 3 nM [35S]-TBPS, in the presence of 5 mM GABA

Structure (SMILES) | IC50 [2] [nM] | IC50 [3] [nM] | also measured
CC(=O)[C@@H]1C[C@H]2[C@@H]3CC[C@H]4C[C@](C)(O)CC[C@@H]4[C@H]3CC[C@]12C [I-AD8a, 1-((1R,2aS,2bR,4aS,6R,8aS,8bR,10aS)-6-hydroxy-6,10a-dimethylhexadecahydrocyclobuta[a]phenanthren-1-yl)ethan-1-one] |  |  | IC50 [1]: 1000 to 10000 nM
C[C@@]1(O)CC[C@H]2[C@@H](CC[C@@H]3[C@@H]2CC[C@]2(C)[C@@H](C(=O)Cn4cc(C#N)cn4)C[C@@H]32)C1 [I-AD10, 1-(2-((1S,2aS,2bR,4aS,6R,8aS,8bR,10aS)-6-hydroxy-6,10a-dimethylhexadecahydrocyclobuta[a]phenanthren-1-yl)-2-oxoethyl)-1H-pyrazole-4-carbonitrile] |  |  | IC50 [1]: 1000 to 10000 nM
CCOC[C@@]1(O)CC[C@H]2[C@@H](CC[C@@H]3[C@@H]2CC[C@]2(C)[C@@H](C(=O)Nc4ccccc4)CCC[C@@H]32)C1 [I-B11, (1S,4aS,4bR,6aS,8R,10aS,10bR,12aS)-8-(ethoxymethyl)-8-hydroxy-12a-methyl-N-phenyloctadecahydrochrysene-1-carboxamide] |  |  | IC50: 10 to 100 nM
C[C@@]1(O)CC[C@H]2[C@H](CC[C@@H]3[C@@H]2CC[C@]2(C)[C@H](CO)CCCC[C@@H]32)C1 [I-BA5a, (2R,4aS,4bR,6aS,7R,11aS,11bR,13aR)-7-(hydroxymethyl)-2,6a-dimethyloctadecahydro-1H-cyclohepta[a]phenanthren-2-ol] | 1000 to 10000 |  | 
C[C@@]1(O)CC[C@H]2[C@H](CC[C@@H]3[C@@H]2CC[C@]2(C)[C@@H](CO)CCCC[C@@H]32)C1 [I-BA5b, (2R,4aS,4bR,6aS,7S,11aS,11bR,13aR)-7-(hydroxymethyl)-2,6a-dimethyloctadecahydro-1H-cyclohepta[a]phenanthren-2-ol] | 100 to 1000 |  | 
COC[C@H]1CCCC[C@H]2[C@@H]3CC[C@@H]4C[C@](C)(O)CC[C@@H]4[C@H]3CC[C@]12C [I-BA6, (2R,4aS,4bR,6aS,7S,11aS,11bR,13aR)-7-(methoxymethyl)-2,6a-dimethyloctadecahydro-1H-cyclohepta[a]phenanthren-2-ol] | 100 to 1000 |  | 
COC[C@@H]1CCCC[C@H]2[C@@H]3CC[C@@H]4C[C@](C)(O)CC[C@@H]4[C@H]3CC[C@]12C [I-BA6a, (2R,4aS,4bR,6aS,7R,11aS,11bR,13aR)-7-(methoxymethyl)-2,6a-dimethyloctadecahydro-1H-cyclohepta[a]phenanthren-2-ol] | 1000 to 10000 |  | 
CC(=O)[C@H]1CCCC[C@H]2[C@@H]3CC[C@@H]4C[C@](C)(O)CC[C@@H]4[C@H]3CC[C@]12C [I-BA9a, 1-((2R,4aS,4bR,6aS,7S,11aS,11bR,13aR)-2-hydroxy-2,6a-dimethyloctadecahydro-1H-cyclohepta[a]phenanthren-7-yl)ethan-1-one] | 10 to 100 |  | 
C[C@@]1(O)CC[C@H]2[C@H](CC[C@@H]3[C@@H]2CC[C@]2(C)[C@H](O)CCCC[C@@H]32)C1 [I-BA12, (2R,4aS,4bR,6aS,7R,11aS,11bR,13aR)-2,6a-dimethyloctadecahydro-1H-cyclohepta[a]phenanthrene-2,7-diol] | 1000 to 10000 |  | 
C[C@@]1(O)CC[C@H]2[C@H](CC[C@@H]3[C@@H]2CC[C@]2(C)[C@@H](C#N)CCCC[C@@H]32)C1 [I-BA16, (2R,4aS,4bR,6aS,7S,11aS,11bR,13aR)-2-hydroxy-2,6a-dimethyloctadecahydro-1H-cyclohepta[a]phenanthrene-7-carbonitrile] | 10 to 100 |  | 
C[C@@]1(O)CC[C@H]2[C@H](CC[C@@H]3[C@@H]2CC[C@]2(C)[C@H](C#N)CCCC[C@@H]32)C1 [I-BA16a, (2R,4aS,4bR,6aS,7R,11aS,11bR,13aR)-2-hydroxy-2,6a-dimethyloctadecahydro-1H-cyclohepta[a]phenanthrene-7-carbonitrile] | 1000 to 10000 |  | 
C[C@@]1(O)CC[C@H]2[C@H](CC[C@@H]3[C@@H]2CC[C@]2(C)[C@@H](C(=O)Nc4ccccc4)CCCC[C@@H]32)C1 [I-BA17, (2R,4aS,4bR,6aS,7S,11aS,11bR,13aR)-2-hydroxy-2,6a-dimethyl-N-phenyloctadecahydro-1H-cyclohepta[a]phenanthrene-7-carboxamide] | 10 to 100 |  | 
C[C@@]1(O)CC[C@H]2[C@H](CC[C@@H]3[C@@H]2CC[C@]2(C)[C@H](C(=O)Nc4ccccc4)CCCC[C@@H]32)C1 [I-BA17a, (2R,4aS,4bR,6aS,7R,11aS,11bR,13aR)-2-hydroxy-2,6a-dimethyl-N-phenyloctadecahydro-1H-cyclohepta[a]phenanthrene-7-carboxamide] | 100 to 1000 |  | 
C[C@@]1(O)CC[C@H]2[C@H](CC[C@@H]3[C@@H]2CC[C@]2(C)C[C@@H](C(=O)Nc4ccccc4)CCC[C@@H]32)C1 [I-BC11, (2R,4aS,4bR,6aR,8S,11aS,11bR,13aR)-2-hydroxy-2,6a-dimethyl-N-phenyloctadecahydro-1H-cyclohepta[a]phenanthrene-8-carboxamide] | 1000 to 10000 |  | 
C[C@@]1(O)CC[C@H]2[C@H](CC[C@@H]3[C@@H]2CC[C@]2(C)C[C@H](C(=O)Nc4ccccc4)CCC[C@@H]32)C1 [I-BC11a] | 1000 to 10000 |  | 
CC(=O)[C@H]1CCC[C@H]2[C@@H]3CC[C@@H]4C[C@](C)(O)CC[C@@H]4[C@H]3CC[C@]2(C)C1 [I-BC14a, 1-((2R,4aS,4bR,6aR,8S,11aS,11bR,13aR)-2-hydroxy-2,6a-dimethyloctadecahydro-1H-cyclohepta[a]phenanthren-8-yl)ethan-1-one] | 100 to 1000 |  | 
CC(=O)[C@@H]1CCC[C@H]2[C@@H]3CC[C@@H]4C[C@](C)(O)CC[C@@H]4[C@H]3CC[C@]2(C)C1 [I-BC14b] | 1000 to 10000 |  | 
C[C@@]1(O)CC[C@H]2[C@H](CC[C@@H]3[C@@H]2CC[C@]2(C)C[C@@H](C(=O)Cn4cc(C#N)cn4)CCC[C@@H]32)C1 [I-BC16, 1-(2-((2R,4aS,4bR,6aR,8S,11aS,11bR,13aR)-2-hydroxy-2,6a-dimethyloctadecahydro-1H-cyclohepta[a]phenanthren-8-yl)-2-oxoethyl)-1H-pyrazole-4-carbonitrile] | 100 to 1000 |  | 
C[C@@]1(O)CC[C@H]2[C@H](CC[C@@H]3[C@@H]2CC[C@]2(C)C[C@H](C(=O)Cn4cc(C#N)cn4)CCC[C@@H]32)C1 [I-BC16a, 1-(2-((2R,4aS,4bR,6aR,8R,11aS,11bR,13aR)-2-hydroxy-2,6a-dimethyloctadecahydro-1H-cyclohepta[a]phenanthren-8-yl)-2-oxoethyl)-1H-pyrazole-4-carbonitrile] | 100 to 1000 |  | 
C[C@@]1(O)CC[C@H]2[C@H](CC[C@@H]3[C@@H]2CC[C@]2(C)[C@@H](CNC(=O)c4ccccc4)CCC[C@@H]32)C1 [I-C4, N-(((1S,4aS,4bR,6aR,8R,10aS,10bR,12aS)-8-hydroxy-8,12a-dimethyloctadecahydrochrysen-1-yl)methyl)benzamide] |  | 100 to 1000 | 
CNC[C@H]1CCC[C@H]2[C@@H]3CC[C@@H]4C[C@](C)(O)CC[C@@H]4[C@H]3CC[C@]12C [I-C5, (2R,4aS,4bR,6aS,7S,10aS,10bR,12aR)-2,6a-dimethyl-7-((methylamino)methyl)octadecahydrochrysen-2-ol] |  | 1000 to 10000 | 
CN(C[C@H]1CCC[C@H]2[C@@H]3CC[C@@H]4C[C@](C)(O)CC[C@@H]4[C@H]3CC[C@]12C)C(=O)c1ccccc1 [I-C6, N-(((1S,4aS,4bR,6aR,8R,10aS,10bR,12aS)-8-hydroxy-8,12a-dimethyloctadecahydrochrysen-1-yl)methyl)-N-methylbenzamide] |  | 100 to 1000 | 
CC(=O)[C@H]1CCC[C@H]2[C@@H]3CC[C@@H]4C[C@](C)(O)CC[C@@H]4[C@H]3CC[C@]12C [I-D7, 1-((1S,4aS,4bR,6aR,8R,10aS,10bR,12aS)-8-hydroxy-8,12a-dimethyloctadecahydrochrysen-1-yl)ethan-1-one] |  | < 10 | 
CC(=O)[C@@H]1CCC[C@H]2[C@@H]3CC[C@@H]4C[C@](C)(O)CC[C@@H]4[C@H]3CC[C@]12C [I-D7a, 1-((1R,4aS,4bR,6aR,8R,10aS,10bR,12aS)-8-hydroxy-8,12a-dimethyloctadecahydrochrysen-1-yl)ethan-1-one] |  | 100 to 1000 | 
C[C@H]1CCCCN1C(=O)[C@H]1CCC[C@H]2[C@@H]3CC[C@@H]4C[C@](C)(O)CC[C@@H]4[C@H]3CC[C@]12C [I-E4, ((1S,4aS,4bR,6aR,8R,10aS,10bR,12aS)-8-hydroxy-8,12a-dimethyloctadecahydrochrysen-1-yl)((S)-2-methylpiperidin-1-yl)methanone] |  | 100 to 1000 | 
COC[C@@]1(O)CC[C@H]2[C@@H](CC[C@@H]3[C@@H]2CC[C@]2(C)[C@@H](C(C)=O)CCC[C@@H]32)C1 [I-G14, 1-((1S,4aS,4bR,6aS,8R,10aS,10bR,12aS)-8-hydroxy-8-(methoxymethyl)-12a-methyloctadecahydrochrysen-1-yl)ethan-1-one] |  | 10 to 100 | 
COC[C@@]1(O)CC[C@H]2[C@@H](CC[C@@H]3[C@@H]2CC[C@]2(C)[C@@H](C(=O)Cn4nnc(C)n4)CCC[C@@H]32)C1 [I-G16, 1-((1S,4aS,4bR,6aS,8R,10aS,10bR,12aS)-8-hydroxy-8-(methoxymethyl)-12a-methyloctadecahydrochrysen-1-yl)-2-(5-methyl-2H-tetrazol-2-yl)ethan-1-one] |  | < 10 | 
COC[C@@]1(O)CC[C@H]2[C@@H](CC[C@@H]3[C@@H]2CC[C@]2(C)[C@@H](C(=O)Cn4nnnc4C)CCC[C@@H]32)C1 [I-G16a, 1-((1S,4aS,4bR,6aS,8R,10aS,10bR,12aS)-8-hydroxy-8-(methoxymethyl)-12a-methyloctadecahydrochrysen-1-yl)-2-(5-methyl-1H-tetrazol-1-yl)ethan-1-one] |  | 10 to 100 | 

Reference: patent publication US20220315621A1, “COMPOSITIONS AND METHODS FOR TREATING CNS DISORDERS” (priority 2017, published 2022)
